Source: ChEMBL document CHEMBL1131161 (J Med Chem, 1998)

Tests used:
[1] = target: T1, Progesterone receptor (Homo sapiens, UniProt P06401); assay: Binding affinity against human progesterone receptor
T1 sequence (P06401 whole entry): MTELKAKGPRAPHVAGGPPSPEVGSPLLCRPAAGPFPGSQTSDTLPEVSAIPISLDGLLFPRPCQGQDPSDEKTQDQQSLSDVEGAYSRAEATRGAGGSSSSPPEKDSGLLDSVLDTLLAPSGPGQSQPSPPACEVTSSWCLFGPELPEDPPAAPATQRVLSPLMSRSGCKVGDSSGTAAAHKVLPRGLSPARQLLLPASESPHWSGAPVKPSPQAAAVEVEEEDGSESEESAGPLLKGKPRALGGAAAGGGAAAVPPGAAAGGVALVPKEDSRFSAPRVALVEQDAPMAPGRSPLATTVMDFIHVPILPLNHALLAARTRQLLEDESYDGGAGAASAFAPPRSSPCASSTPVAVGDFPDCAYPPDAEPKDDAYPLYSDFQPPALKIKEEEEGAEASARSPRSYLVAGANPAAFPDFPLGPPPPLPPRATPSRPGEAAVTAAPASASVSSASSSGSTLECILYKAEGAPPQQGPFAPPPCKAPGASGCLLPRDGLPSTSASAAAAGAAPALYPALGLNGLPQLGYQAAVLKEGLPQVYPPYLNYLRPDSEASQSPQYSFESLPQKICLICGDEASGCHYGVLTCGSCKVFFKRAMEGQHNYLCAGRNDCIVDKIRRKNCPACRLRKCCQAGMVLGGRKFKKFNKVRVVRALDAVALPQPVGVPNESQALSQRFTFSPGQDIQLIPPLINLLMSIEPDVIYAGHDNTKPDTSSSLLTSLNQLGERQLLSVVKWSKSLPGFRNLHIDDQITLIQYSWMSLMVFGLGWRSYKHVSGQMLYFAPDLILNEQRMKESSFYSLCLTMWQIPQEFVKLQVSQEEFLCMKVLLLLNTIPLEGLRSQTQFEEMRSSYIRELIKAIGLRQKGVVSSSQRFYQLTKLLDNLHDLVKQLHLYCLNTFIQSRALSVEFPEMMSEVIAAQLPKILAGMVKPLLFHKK

[2] = system: CV-1; assay: Inhibitory concentration in CV-1 cell; type: functional, cell-based, Cercopithecidae; conditions: Chlorocebus aethiops
[3] = target: T1, Progesterone receptor; assay: Effective concentration (EC50) against human progesterone receptor expressed in CV-1 cell; type: functional, cell-based
[4] = system: CV-1; assay: Inhibitory concentration was determined from full dose response curves ranging from 10 E -12 to 10 E -5M in CV-1 cell; type: functional, Cercopithecidae
[5] = target: T2, Glucocorticoid receptor (Homo sapiens, UniProt P04150)
T2 sequence (P04150 whole entry): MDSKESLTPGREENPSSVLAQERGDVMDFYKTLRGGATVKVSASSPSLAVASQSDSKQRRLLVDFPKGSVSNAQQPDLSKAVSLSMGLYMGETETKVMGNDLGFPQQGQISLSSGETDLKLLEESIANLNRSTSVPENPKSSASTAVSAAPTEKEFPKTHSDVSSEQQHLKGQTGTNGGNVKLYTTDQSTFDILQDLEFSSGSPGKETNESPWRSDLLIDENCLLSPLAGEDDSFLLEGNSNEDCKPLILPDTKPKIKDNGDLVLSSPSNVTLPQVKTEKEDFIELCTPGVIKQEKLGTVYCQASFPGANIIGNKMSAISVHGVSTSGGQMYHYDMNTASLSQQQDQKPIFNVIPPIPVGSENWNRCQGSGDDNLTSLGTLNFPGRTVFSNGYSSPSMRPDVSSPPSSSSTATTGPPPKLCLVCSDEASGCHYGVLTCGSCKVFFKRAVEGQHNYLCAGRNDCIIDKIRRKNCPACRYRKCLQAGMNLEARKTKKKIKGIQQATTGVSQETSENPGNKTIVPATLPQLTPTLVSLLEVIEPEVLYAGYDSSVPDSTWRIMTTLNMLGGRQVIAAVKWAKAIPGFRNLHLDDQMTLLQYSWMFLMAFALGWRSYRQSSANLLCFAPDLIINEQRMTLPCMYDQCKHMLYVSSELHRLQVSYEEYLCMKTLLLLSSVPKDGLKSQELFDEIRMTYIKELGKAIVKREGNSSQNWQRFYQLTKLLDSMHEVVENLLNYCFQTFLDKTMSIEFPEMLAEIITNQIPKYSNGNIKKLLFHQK
Description: Inhibitory activity (IC50) against human glucocorticoid receptor expressed in CV-1 cells

[6] = target: T3, Androgen receptor (Homo sapiens, UniProt P10275)
T3 sequence (P10275 whole entry): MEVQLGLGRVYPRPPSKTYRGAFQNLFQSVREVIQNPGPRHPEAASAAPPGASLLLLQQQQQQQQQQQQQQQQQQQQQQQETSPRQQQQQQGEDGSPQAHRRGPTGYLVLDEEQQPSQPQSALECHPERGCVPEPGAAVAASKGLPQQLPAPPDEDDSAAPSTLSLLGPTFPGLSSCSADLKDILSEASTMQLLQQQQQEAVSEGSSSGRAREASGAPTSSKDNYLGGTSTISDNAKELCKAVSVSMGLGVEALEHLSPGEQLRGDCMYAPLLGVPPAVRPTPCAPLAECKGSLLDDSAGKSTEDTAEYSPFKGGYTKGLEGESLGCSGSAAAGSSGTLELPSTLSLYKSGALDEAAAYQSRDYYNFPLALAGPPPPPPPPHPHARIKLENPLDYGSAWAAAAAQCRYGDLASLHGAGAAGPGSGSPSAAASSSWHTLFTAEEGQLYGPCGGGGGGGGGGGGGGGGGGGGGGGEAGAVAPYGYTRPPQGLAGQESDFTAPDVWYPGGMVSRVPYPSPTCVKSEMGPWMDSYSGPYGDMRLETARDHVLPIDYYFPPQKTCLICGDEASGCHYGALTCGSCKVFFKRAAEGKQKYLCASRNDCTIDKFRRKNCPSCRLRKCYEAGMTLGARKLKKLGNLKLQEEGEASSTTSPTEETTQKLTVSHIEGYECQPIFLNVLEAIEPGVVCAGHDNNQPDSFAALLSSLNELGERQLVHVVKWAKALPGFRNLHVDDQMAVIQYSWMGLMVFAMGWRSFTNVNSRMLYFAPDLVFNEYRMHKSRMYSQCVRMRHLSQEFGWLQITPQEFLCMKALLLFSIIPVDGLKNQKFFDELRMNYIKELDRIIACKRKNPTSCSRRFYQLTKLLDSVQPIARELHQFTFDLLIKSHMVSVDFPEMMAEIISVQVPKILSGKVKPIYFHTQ
Description: Inhibitory activity (IC50) against human androgen receptor expressed in CV-1 cells

[7] = target: T4, Mineralocorticoid receptor (Homo sapiens, UniProt P08235); assay: Inhibitory activity (IC50) against human mineralocorticoid receptor expressed in CV-1 cells; type: functional, cell-based
T4 sequence (P08235 whole entry): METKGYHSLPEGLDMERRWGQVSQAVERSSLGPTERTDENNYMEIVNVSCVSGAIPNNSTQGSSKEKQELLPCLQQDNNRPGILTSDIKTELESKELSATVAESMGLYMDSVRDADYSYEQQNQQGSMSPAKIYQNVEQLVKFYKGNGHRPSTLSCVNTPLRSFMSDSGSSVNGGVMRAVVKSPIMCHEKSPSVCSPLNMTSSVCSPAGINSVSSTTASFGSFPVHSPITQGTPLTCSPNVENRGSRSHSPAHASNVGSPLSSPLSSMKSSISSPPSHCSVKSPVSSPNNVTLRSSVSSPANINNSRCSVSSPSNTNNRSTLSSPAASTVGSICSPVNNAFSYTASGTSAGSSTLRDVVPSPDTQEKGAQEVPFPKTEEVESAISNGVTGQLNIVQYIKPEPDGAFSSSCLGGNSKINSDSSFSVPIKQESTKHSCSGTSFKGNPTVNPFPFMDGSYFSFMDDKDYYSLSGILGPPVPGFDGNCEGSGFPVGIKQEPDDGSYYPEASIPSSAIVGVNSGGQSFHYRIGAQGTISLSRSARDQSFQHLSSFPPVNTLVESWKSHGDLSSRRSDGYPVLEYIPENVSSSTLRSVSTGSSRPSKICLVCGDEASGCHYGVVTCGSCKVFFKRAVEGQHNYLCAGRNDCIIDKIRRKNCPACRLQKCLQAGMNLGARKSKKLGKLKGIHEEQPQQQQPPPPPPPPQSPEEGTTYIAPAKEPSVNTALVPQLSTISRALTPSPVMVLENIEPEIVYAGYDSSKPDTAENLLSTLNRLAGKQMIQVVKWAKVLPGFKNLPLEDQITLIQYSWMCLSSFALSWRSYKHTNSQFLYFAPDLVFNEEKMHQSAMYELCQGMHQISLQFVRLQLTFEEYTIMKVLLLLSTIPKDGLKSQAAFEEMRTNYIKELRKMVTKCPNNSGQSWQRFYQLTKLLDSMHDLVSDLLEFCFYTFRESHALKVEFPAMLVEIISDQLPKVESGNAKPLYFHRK

[8] = target: Estrogen receptor (Homo sapiens, UniProt Q92731+P03372); conditions: cv-1
Description: IC50 determined against human estrogen receptor in CV-1 cells

[9] = target: T3, Androgen receptor; remark: listed apart in the source
Description: Binding affinity against human androgen receptor

[10] = target: T2, Glucocorticoid receptor; assay: biochemical
Description: Binding affinity against human glucocorticoid receptor expressed in SF-12 cells

[11] = system: CV-1; assay: inhibitory concentration was determined from full dose response curves ranging from 10 E -12 to 10 E -5M in CV-1 cell; type: functional, cell-based, Cercopithecidae; conditions: Chlorocebus aethiops

Row | Structure (SMILES) | Ki [1] | IC50 [2] | EC50 [3] | further results
1 | CC1=CC(C)(C)Nc2ccc3c(c21)/C(=C/c1cccc(C)c1)Oc1ccccc1-3 | 39.7 nM | > 10000 nM | 75 nM | 
2 | CC1=CC(C)(C)Nc2ccc3c(c21)/C(=C/c1ccc(C)cc1)Oc1ccccc1-3 | 70 nM | 590 nM | > 10000 nM | 
3 | CC1=CC(C)(C)Nc2ccc3c(c21)/C(=C/c1ccccc1Cl)Oc1ccccc1-3 | 1.3 nM | > 10000 nM | 57.8 nM | 
4 | CC1=CC(C)(C)Nc2ccc3c(c21)/C(=C/c1ccc(Cl)cc1)Oc1ccccc1-3 | 60 nM | 880 nM | 139 nM | 
5 | CC(=O)O[C@]1(C(C)=O)CC[C@H]2[C@@H]3C[C@H](C)C4=CC(=O)CC[C@]4(C)[C@H]3CC[C@@]21C [MEDROXYPROGESTERONE ACETATE] |  |  |  | IC50 [4]: >10 µM; IC50 [5]: 10 nM
6 | CC1=CC(C)(C)Nc2ccc3c(c21)/C(=C/c1ccccc1)Oc1ccccc1-3 | 4.9 nM | > 10000 nM | 24.4 nM | IC50 [6]: 650 nM; IC50 [7]: 3 µM; IC50 [8]: > 10 µM; Ki [9]: 2660 nM; IC50 [5]: 737 nM; Ki [10]: 299 nM
7 | CC1=CC(C)(C)Nc2ccc3c(c21)C(c1ccccc1)Oc1ccccc1-3 (centres undefined) |  | 290 nM |  | 
8 | CC(=O)[C@H]1CC[C@H]2[C@@H]3CCC4=CC(=O)CC[C@]4(C)[C@H]3CC[C@]12C [PROGESTERONE] |  |  |  | IC50 [11]: > 10 µM
9 | CC1=CC(C)(C)Nc2ccc3c(c21)/C(=C/c1cccc(F)c1)Oc1ccccc1-3 | 0.83 nM | > 10000 nM | 7.6 nM | IC50 [6]: 795 nM; IC50 [7]: > 10 µM; IC50 [8]: > 10 µM; Ki [9]: 798 nM; IC50 [5]: 458 nM; Ki [10]: 180 nM
10 | CC1=CC(C)(C)Nc2ccc3c(c21)/C(=C/c1c(F)cccc1F)Oc1ccccc1-3 | 31.3 nM | 220 nM | 32 nM | 
11 | CC1=CC(C)(C)Nc2ccc3c(c21)/C(=C/c1ccc(F)cc1F)Oc1ccccc1-3 |  | 550 nM | 22 nM | 
12 | CC1=CC(C)(C)Nc2ccc3c(c21)/C(=C/c1ccccc1F)Oc1ccccc1-3 | 5.6 nM | > 10000 nM | 29 nM | 
13 | CC1=CC(C)(C)Nc2ccc3c(c21)/C(=C/c1cccc(Br)c1)Oc1ccccc1-3 | 22.1 nM | > 10000 nM | 37 nM | 
14 | CC1=CC(C)(C)Nc2ccc3c(c21)/C(=C/c1ccc(Br)cc1)Oc1ccccc1-3 | 8.7 nM | > 10000 nM | 31.5 nM | 
15 | CC1=CC(C)(C)Nc2ccc3c(c21)/C(=C/c1cccc(Cl)c1)Oc1ccccc1-3 | 18.7 nM | > 10000 nM | 117 nM | 
16 | CC1=CC(C)(C)Nc2ccc3c(c21)/C(=C/c1cc(F)cc(F)c1)Oc1ccccc1-3 | 12.6 nM | > 10000 nM | 47.7 nM | 
17 | CC1=CC(C)(C)Nc2ccc3c(c21)C(Cc1ccccc1)Oc1ccccc1-3 (centres undefined) | 2.1 nM | 270 nM | 16.8 nM | 
18 | COc1cccc(/C=C2\Oc3ccccc3-c3ccc4c(c32)C(C)=CC(C)(C)N4)c1 | 53.3 nM | 425 nM | > 10000 nM | 
19 | CC1=CC(C)(C)Nc2ccc3c(c21)/C(=C/c1ccccc1Br)Oc1ccccc1-3 | 5.5 nM | > 10000 nM | 57.8 nM | 
20 | CC1=CC(C)(C)Nc2ccc3c(c21)/C(=C/c1ccc(F)cc1)Oc1ccccc1-3 | 3.5 nM | > 10000 nM | 59.5 nM | 
21 | CC1=CC(C)(C)Nc2ccc3c(c21)/C(=C/c1cccc(F)c1F)Oc1ccccc1-3 | 24.3 nM | 531 nM | 26.3 nM | 
